Results from the NIST ThermoML archive (doi:10.1016/j.jct.2010.04.013).

Experiment: mn = molality of the nth substance listed, in mol/kg
Conditions: 101 kPa, Liquid; for mass density: Vibrating tube method; for speed of sound: Pulse-echo method

[Mg+2].[O-][Cl+3]([O-])([O-])[O-].[O-][Cl+3]([O-])([O-])[O-] [magnesium perchlorate] + CO
Conditions | mass density, 283.15 K [kg/m3] | mass density, 288.15 K [kg/m3] | mass density, 293.15 K [kg/m3] | mass density, 298.15 K [kg/m3] | mass density, 303.15 K [kg/m3] | mass density, 308.15 K [kg/m3] | mass density, 313.15 K [kg/m3] | speed of sound, 298.15 K [m/s]
m1 = 0.05219 | 809.719 | 805.077 | 800.41 | 795.738 | 791.047 | 786.336 | 781.598 | 1109.9
m1 = 0.06927 | 812.714 | 808.079 | 803.422 | 798.76 | 794.077 | 789.377 | 784.647 | 1112.6
m1 = 0.08495 | 815.487 | 810.862 | 806.214 | 801.554 | 796.877 | 792.189 | 787.47 | 1115.2
m1 = 0.1015 | 818.369 | 813.747 | 809.112 | 804.466 | 799.801 | 795.117 | 790.405 | 1117.5
m1 = 0.1173 | 821.156 | 816.545 | 811.914 | 807.277 | 802.62 | 797.944 | 793.24 | 1120
m1 = 0.1339 | 824.082 | 819.477 | 814.852 | 810.224 | 805.578 | 800.91 | 796.216 | 1122.5
m1 = 0.1663 | 829.827 | 825.238 | 820.63 | 816.008 | 811.382 | 806.732 | 802.054 | 1127.2
m1 = 0.1999 | 835.828 | 831.249 | 826.659 | 822.059 | 817.443 | 812.807 | 808.147 | 1132.5
m1 = 0.2312 | 841.439 | 836.878 | 832.301 | 827.71 | 823.106 | 818.493 | 813.847 | 1137.2
m1 = 0.2628 | 847.212 | 842.663 | 838.096 | 833.522 | 828.937 | 824.333 | 819.703 | 1142
m1 = 0.2917 | 852.468 | 847.932 | 843.38 | 838.819 | 834.243 | 829.645 | 825.025 | 1146.5
m1 = 0.3234 | 858.304 | 853.784 | 849.245 | 844.698 | 840.139 | 835.559 | 830.96 | 1151.8

[Mg+2].[O-][Cl+3]([O-])([O-])[O-].[O-][Cl+3]([O-])([O-])[O-] [magnesium perchlorate] + C[S+](C)[O-]
Conditions | mass density, 293.15 K [kg/m3] | mass density, 298.15 K [kg/m3] | mass density, 303.15 K [kg/m3] | mass density, 313.15 K [kg/m3] | mass density, 323.15 K [kg/m3] | mass density, 333.15 K [kg/m3] | speed of sound, 298.15 K [m/s]
m1 = 0.02171 | 1103.82 | 1098.81 | 1093.8 | 1083.79 | 1073.79 | 1063.78 | –
m1 = 0.03119 | 1105.4 | 1100.4 | 1095.39 | 1085.4 | 1075.41 | 1065.42 | 1486.8
m1 = 0.04163 | 1107.14 | 1102.15 | 1097.16 | 1087.18 | 1077.2 | 1067.23 | 1487.7
m1 = 0.05295 | 1109.04 | 1104.04 | 1099.06 | 1089.1 | 1079.15 | 1069.19 | 1488.7
m1 = 0.06473 | 1111.01 | 1106.03 | 1101.06 | 1091.11 | 1081.18 | 1071.25 | 1489.7
m1 = 0.08226 | 1113.97 | 1109 | 1104.04 | 1094.12 | 1084.21 | 1074.31 | 1491.1
m1 = 0.1041 | 1117.67 | 1112.71 | 1107.76 | 1097.88 | 1088 | 1078.12 | 1493
m1 = 0.1277 | 1121.69 | 1116.74 | 1111.81 | 1101.96 | 1092.12 | 1082.29 | 1494.8
m1 = 0.1481 | 1125.19 | 1120.27 | 1115.34 | 1105.52 | 1095.7 | 1085.9 | 1496.7
m1 = 0.1734 | 1129.53 | 1124.62 | 1119.72 | 1109.94 | 1100.17 | 1090.39 | 1498.8
m1 = 0.1952 | 1133.31 | 1128.4 | 1123.52 | 1113.77 | 1104.03 | 1094.3 | 1500.8

CO [methanol] + O=S(=O)([O-])C(F)(F)F.O=S(=O)([O-])C(F)(F)F.[Be+2]
m2 = 0
Conditions | mass density [kg/m3]
283.15 K | 800.552
288.15 K | 795.874
293.15 K | 791.179
298.15 K | 786.469
303.15 K | 781.742
308.15 K | 776.993
313.15 K | 772.216

CO [methanol] + O=S(=O)([O-])C(F)(F)F.[Na+]
m2 = 0
Conditions | mass density [kg/m3]
283.15 K | 800.544
288.15 K | 795.854
293.15 K | 791.158
298.15 K | 786.447
303.15 K | 781.714
308.15 K | 776.97
313.15 K | 772.195

CO [methanol] + [Ba+2].[O-][Cl+3]([O-])([O-])[O-].[O-][Cl+3]([O-])([O-])[O-]
m2 = 0
Conditions | mass density [kg/m3]
283.15 K | 800.555
288.15 K | 795.877
293.15 K | 791.18
298.15 K | 786.468
303.15 K | 781.739
308.15 K | 776.993
313.15 K | 772.219

CO [methanol] + [Ca+2].[O-][Cl+3]([O-])([O-])[O-].[O-][Cl+3]([O-])([O-])[O-]
m2 = 0
Conditions | mass density [kg/m3]
283.15 K | 800.54
288.15 K | 795.862
293.15 K | 791.168
298.15 K | 786.458
303.15 K | 781.732
308.15 K | 776.98
313.15 K | 772.203

CO [methanol] + [Mg+2].[O-][Cl+3]([O-])([O-])[O-].[O-][Cl+3]([O-])([O-])[O-]
m2 = 0
Conditions | mass density [kg/m3]
283.15 K | 800.542
288.15 K | 795.864
293.15 K | 791.17
298.15 K | 786.46
303.15 K | 781.735
308.15 K | 776.985
313.15 K | 772.206

CO [methanol] + [O-][Cl+3]([O-])([O-])[O-].[O-][Cl+3]([O-])([O-])[O-].[Sr+2]
m2 = 0
Conditions | mass density [kg/m3]
283.15 K | 800.547
288.15 K | 795.856
293.15 K | 791.16
298.15 K | 786.447
303.15 K | 781.721
308.15 K | 776.973
313.15 K | 772.194

O=S(=O)([O-])C(F)(F)F.[Na+] [sodium trifluoromethanesulfonate] + CO
Conditions | mass density, 283.15 K [kg/m3] | mass density, 288.15 K [kg/m3] | mass density, 293.15 K [kg/m3] | mass density, 298.15 K [kg/m3] | mass density, 303.15 K [kg/m3] | mass density, 308.15 K [kg/m3] | mass density, 313.15 K [kg/m3] | speed of sound, 298.15 K [m/s]
m1 = 0.04581 | 805.004 | 800.315 | 795.62 | 790.91 | 786.191 | 781.448 | 776.675 | 1102.3
m1 = 0.05858 | 806.247 | 801.557 | 796.863 | 792.154 | 787.428 | 782.688 | 777.918 | 1102.5
m1 = 0.07409 | 807.746 | 803.057 | 798.363 | 793.657 | 788.931 | 784.175 | 779.409 | 1103
m1 = 0.08825 | 809.117 | 804.427 | 799.733 | 795.022 | 790.305 | 785.561 | 780.79 | 1103.2
m1 = 0.1028 | 810.527 | 805.836 | 801.14 | 796.431 | 791.701 | 786.964 | 782.194 | 1103.4
m1 = 0.1172 | 811.93 | 807.238 | 802.543 | 797.833 | 793.105 | 788.352 | 783.59 | 1103.6
m1 = 0.1463 | 814.771 | 810.077 | 805.377 | 800.668 | 795.947 | 791.201 | 786.428 | 1104
m1 = 0.1743 | 817.509 | 812.812 | 808.112 | 803.401 | 798.671 | 793.913 | 789.143 | 1104.6
m1 = 0.2027 | 820.305 | 815.606 | 810.904 | 806.19 | 801.46 | 796.713 | 791.938 | 1105
m1 = 0.2301 | 823.038 | 818.338 | 813.634 | 808.917 | 804.185 | 799.436 | 794.66 | 1105.2
m1 = 0.2574 | 825.732 | 821.028 | 816.321 | 811.601 | 806.867 | 802.106 | 797.321 | 1105.4
m1 = 0.2861 | 828.58 | 823.872 | 819.161 | 814.439 | 809.7 | 804.938 | 800.15 | 1105.6
